Measurements as given in PMC11249824 (Clinical and Translational Science, 2024).
Marks after values point to notes of the source that are not given here.

Key:
[1] = assay type: in vivo, healthy male subjects
Safety and tolerability = assay type: in vivo, healthy male subjects; details: for Abdominal pain, number of adverse events / Abdominal pain, number of subjects / Diarrhea, number of adverse events / Diarrhea, number of subjects / Headache, number of adverse events / Headache, number of subjects / Nausea, number of adverse events / Nausea, number of subjects / Number of different TEAEs / Number of subjects with at least one TEAE / Somnolence, number of adverse events / Somnolence, number of subjects / Total number of TEAEs: N = 16
[2] = cited from earlier work
[3] = cited from earlier work; remark: listed apart in the source
CYP3A4 = details: in vitro, preclinical observation; cited from earlier work
ACKR3/CXCR7 = details: cited from earlier work
[4] = attributed to sequestration by β‐cyclodextrin; cited from earlier work
[5] = Treatment A: single oral 10 mg ACT‐1004‐1239 alone, fed, geometric mean (95% CI), N = 16
[6] = Treatment A (ACT‐1004‐1239 alone)
[7] = Treatment B2 (ACT‐1004‐1239 + itraconazole)
[8] = up to and including a dose of 200 mg

In the case of `O=C(N[C@H]1CCN(CC2CC2)C[C@@H]1C(=O)NC1(c2ncccn2)CC1)c1cc(-c2ccc(F)cc2F)on1` [ACT‐1004‐1239], the “AUC0−t” value [1, 5] was 300 (257, 352) ng * h/mL, the Cmax [1, 5] was 25.6 (21.1, 31.0) ng/mL and the “AUC0−inf” value ([1]; Treatment A: single oral 10 mg ACT‐1004‐1239 alone, fed, geometric mean (95% CI), n = 10) was 326 (279, 380) ^a ng * h/mL. For the same compound, the t max ([1]; Treatment A: single oral 10 mg ACT‐1004‐1239 alone, fed, median (range), N = 16) was 2.00 (0.5, 6.0) h, the “median of differences in t max (90% CI)” value ([1]; Treatment B2 (with itraconazole) vs Treatment A (alone), Hodges‐Lehmann estimate) was 30 min and the “increase of exposure to ACT‐1004‐1239 with itraconazole versus alone” value ([1]; concomitant multiple doses 200 mg itraconazole (CYP3A4 inhibition)) was “up to 2.9 fold”. The “Abdominal pain, number of adverse events” value (Safety and tolerability; [6]) was 0 nAEs, the “Abdominal pain, number of subjects” value (Safety and tolerability; [6]) was 0 n (%) and the “Diarrhea, number of adverse events” value (Safety and tolerability; [6]) was 0 nAEs. For the same compound, the “Diarrhea, number of subjects” value (Safety and tolerability; [6]) was 0 n (%), the “Headache, number of adverse events” value (Safety and tolerability; [6]) was 2 nAEs and the “Headache, number of subjects” value (Safety and tolerability; [6]) was 1 (6.3) n (%). For the same compound, the “Nausea, number of adverse events” value (Safety and tolerability; [6]) was 2 nAEs, the “Nausea, number of subjects” value (Safety and tolerability; [6]) was 2 (12.5) n (%) and the “Number of different TEAEs” value (Safety and tolerability; [6]) was 3 nAEs. The “Number of subjects with at least one TEAE” value (Safety and tolerability; [6]) was 3 (18.8) n (%), the “Somnolence, number of adverse events” value (Safety and tolerability; [6]) was 1 nAEs and the “Somnolence, number of subjects” value (Safety and tolerability; [6]) was 1 (6.3) n (%). For the same compound, the “Total number of TEAEs” value (Safety and tolerability; [6]) was 5 nAEs, the “Abdominal pain, number of adverse events” value (Safety and tolerability; [7]) was 1 nAEs and the “Abdominal pain, number of subjects” value (Safety and tolerability; [7]) was 1 (6.3) n (%). The “Diarrhea, number of adverse events” value (Safety and tolerability; [7]) was 1 nAEs, the “Diarrhea, number of subjects” value (Safety and tolerability; [7]) was 1 (6.3) n (%) and the “Headache, number of adverse events” value (Safety and tolerability; [7]) was 1 nAEs. The “Headache, number of subjects” value (Safety and tolerability; [7]) was 1 (6.3) n (%), the “Nausea, number of adverse events” value (Safety and tolerability; [7]) was 0 nAEs and the “Nausea, number of subjects” value (Safety and tolerability; [7]) was 0 n (%). For the same compound, the “Number of different TEAEs” value (Safety and tolerability; [7]) was 3 nAEs, the “Number of subjects with at least one TEAE” value (Safety and tolerability; [7]) was 3 (18.8) n (%) and the “Somnolence, number of adverse events” value (Safety and tolerability; [7]) was 0 nAEs. The “Somnolence, number of subjects” value (Safety and tolerability; [7]) was 0 n (%), the “Total number of TEAEs” value (Safety and tolerability; [7]) was 3 nAEs and the tolerability (Safety and tolerability; all treatments, 10 mg ACT‐1004‐1239 in absence and presence of itraconazole) was “well‐tolerated”. The “overall incidence of subjects with TEAEs” value (Safety and tolerability; in each treatment (A and B2)) was 18.8%, the “effect of food on exposure” value [2] was “no effect of food” and the “dose dependence of exposure” value ([2]; dose range 1–200 mg) was “dose‐proportional”. The absolute bioavailability ([2]; healthy subjects) was 53%, the volume of distribution ([2]; healthy subjects) was 183 L and the QTc liability [2, 8] was “without QTc liability”. For the same compound, the safety and tolerability [2, 8] was “safe and well‐tolerated”, the “contribution of elimination via M1 to drug's elimination” value ([3]; humans, M1 plus A1 and A2) was “approximately 44%” and the “unchanged drug recovered in excreta” value ([3]; oral 14C‐labeled ACT‐1004‐1239) was 15%. For the same compound, the “dependency of metabolism on CYP3A4” value (CYP3A4) was 94% and the “CXCL12 plasma concentration (target engagement)” value (ACKR3/CXCR7) was “dose‐dependent increase”.

For `O=C(Nc1ccc(OC(F)(F)Cl)cc1)c1cnc(N2CC[C@@H](O)C2)c(-c2ccn[nH]2)c1` [asciminib], the “decrease of exposure when given concomitantly with an itraconazole solution” value [4] is given as “approximately 50%”.
